What was measured:
[1] = biological target: T1, Mcl-1 (Homo sapiens, UniProt Q07820); settings: cited from earlier work
Target sequence in this assay (Q07820 whole entry): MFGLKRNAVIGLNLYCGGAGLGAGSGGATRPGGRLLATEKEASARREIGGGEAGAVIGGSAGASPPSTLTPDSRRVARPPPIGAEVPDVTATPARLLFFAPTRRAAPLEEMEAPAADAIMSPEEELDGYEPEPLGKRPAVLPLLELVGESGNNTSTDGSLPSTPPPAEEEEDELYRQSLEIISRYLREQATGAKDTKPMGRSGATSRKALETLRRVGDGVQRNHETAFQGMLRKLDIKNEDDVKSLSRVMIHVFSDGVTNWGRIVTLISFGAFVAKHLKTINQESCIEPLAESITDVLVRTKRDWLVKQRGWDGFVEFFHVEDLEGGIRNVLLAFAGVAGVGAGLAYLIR

[2] = biological target: T2, Bcl-w (Homo sapiens, UniProt Q92843); assay: FP-based binding assay, Bcl-w; settings: competitive FP, FAM-BID 2 nM, protein 40 nM; read-out: Bcl-w Ki ± SD
T2 sequence (Q92843 1-155): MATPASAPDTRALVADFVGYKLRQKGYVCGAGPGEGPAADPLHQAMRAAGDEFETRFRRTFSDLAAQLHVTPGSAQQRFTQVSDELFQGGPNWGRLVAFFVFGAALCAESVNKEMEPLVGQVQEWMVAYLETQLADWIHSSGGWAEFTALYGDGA

[3] = biological target: T3, cellular Mcl-1 protein (2LMP cell lysate) (Homo sapiens, UniProt Q07820); assay: Biotin-streptavidin pull-down with biotin-labeled Noxa BH3 peptide; format: binding
T3 construct: endogenous in cells; host or cells: 2LMP (subclone of MDA-MB-231) cell lysate
Description: Human breast cancer 2LMP cells, a subclone of the MDA-MB-231 cell line, were lysed in CHAPS buffer (10 mM HEPES (pH 7.4), 2.5 mM EDTA, 150 mM NaCl, 1.0% CHAP). Pre-cleared cell lysates were incubated with different concentrations of tested compounds, followed by incubation with biotinylated Noxa BH3 peptide (residues 18-43) and streptavidin-agarose beads to pull-down Mcl-1 protein bound to Noxa peptide. Beads were washed with CHAPS buffer, and Mcl-1 protein was eluted by boiling in SDS-PAGE sample buffer and analyzed by Western blotting using Mcl-1 antibody (Santa Cruz). DMSO alone was used as a control for nonspecific pull-down.

[4] = biological target: T4, A1/Bfl-1 (Homo sapiens, UniProt Q16548); assay: FP-based binding assay, A1/Bfl-1; settings: competitive FP, FAM-BID 1 nM, protein 4 nM; read-out: A1/Bfl-1 Ki ± SD
T4 sequence (Q16548 1-151): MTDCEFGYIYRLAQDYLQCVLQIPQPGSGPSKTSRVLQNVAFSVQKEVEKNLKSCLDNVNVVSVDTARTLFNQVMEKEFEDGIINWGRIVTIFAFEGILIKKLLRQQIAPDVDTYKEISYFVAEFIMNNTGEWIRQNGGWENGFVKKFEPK

[5] = biological target: T5, Bcl-2 (Homo sapiens, UniProt P10415); assay: FP-based binding assay, Bcl-2; settings: competitive FP, Flu-BID 2 nM, protein 60 nM; read-out: Bcl-2 Ki ± SD
T5 construct: His-tagged proteins containing; fused on or other part: A 16-residue segment of the flexible loop of Bcl-xL (BCL2L1, Q07817; given as residues 35 to 50) set into the Bcl-2 loop region; His tag with TEV site from the pHis-TEV vector

[6] = biological target: Bcl-xL (Homo sapiens, UniProt Q07817, DEL45-85); assay: FP-based binding assay, Bcl-xL; settings: competitive FP, FAM-BID 2 nM, protein 50 nM; read-out: Bcl-xL Ki ± SD
[7] = biological target: T1, Mcl-1; assay: FP-based binding assay, Mcl-1; settings: competitive FP
Target sequence in this assay (Q07820 171-327): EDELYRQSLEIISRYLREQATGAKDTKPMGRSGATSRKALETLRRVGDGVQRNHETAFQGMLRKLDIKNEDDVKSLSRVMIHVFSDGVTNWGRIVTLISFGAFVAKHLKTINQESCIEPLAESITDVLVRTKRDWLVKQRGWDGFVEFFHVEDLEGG

Chain of Bcl-xL (Q07817 other isoform, or with tags, fused parts or gaps DEL45-85): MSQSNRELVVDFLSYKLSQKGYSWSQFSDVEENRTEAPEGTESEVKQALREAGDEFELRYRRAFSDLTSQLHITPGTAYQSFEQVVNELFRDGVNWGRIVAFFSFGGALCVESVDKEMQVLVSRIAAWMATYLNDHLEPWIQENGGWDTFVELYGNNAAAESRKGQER
T5 sequence (P10415 with tags, fused parts or gaps with the stated changes): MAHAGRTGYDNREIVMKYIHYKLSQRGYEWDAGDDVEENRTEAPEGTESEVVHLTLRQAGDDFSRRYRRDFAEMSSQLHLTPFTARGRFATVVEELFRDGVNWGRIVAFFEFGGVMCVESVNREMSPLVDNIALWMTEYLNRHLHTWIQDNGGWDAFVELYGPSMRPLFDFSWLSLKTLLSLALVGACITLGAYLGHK
T3 sequence (Q07820 whole entry): as the sequence (Q07820 whole entry) above

SMILES | binding to Mcl-1, result in words [1] | Ki [2] | disruption of BL-Noxa/cellular Mcl-1 interaction, result in words [3] | Ki [4] | Ki [5] | Ki [6] | IC50 ([7]; Flu-BID 2 nM, Mcl-1 90 nM, read-out: Mcl-1 IC50 ± SD) | Ki ([7]; Ki calculated from IC50, read-out: Mcl-1 Ki ± SD)
CN(C)CC[C@H](CSc1ccccc1)Nc1ccc(S(=O)(=O)NC(=O)c2ccc(N3CCN(Cc4ccccc4-c4ccc(Cl)cc4)CC3)cc2)cc1[N+](=O)[O-] [ABT-737] | fails to bind to Mcl-1 |  |  |  |  |  |  | 
O=C(O)CSc1cc(NS(=O)(=O)c2cccs2)c2ccccc2c1O [Compound 1, 2-((1-Hydroxy-4-(thiophene-2-sulfonamido)naphthalen-2-yl)thio)acetic acid] |  | 37.5 ± 7.96 µM | effectively disrupted | 6.14 ± 1 µM |  |  |  | 
COC(=O)CSc1cc(NS(=O)(=O)c2ccc(Br)cc2)c2ccccc2c1O [Compound 29, Methyl 2-((4-(4-bromophenylsulfonamido)-1-hydroxynaphthalen-2-yl)thio)acetate] |  | > 90 µM |  | > 140 µM | 23.8 ± 5.08 µM | > 130 µM | 18.6 ± 4.93 µM | 5.08 ± 1.35 µM

Source: patent US9486422B2, “Small molecule inhibitors of Mcl-1 and the uses of thereof” (THE REGENTS OF THE UNIVERSITY OF MICHIGAN, priority 2011, dated 2016)
